Here are results for 1 molecule from publication PMC7508583, “Discovery and Preclinical Development of Antigiardiasis Fumagillol Derivatives” (Antimicrobial Agents and Chemotherapy, 2020).

This test deals with G. lamblia GS trophozoites. Briefly: Trophozoite viability MLC determination. The test is classed as cell-based, Giardia lamblia. Here is the method:
The inhibition of metabolism enables the organism to resume proliferation once treatment is completed. To discriminate between the lethality of the promising compounds and the induction of metabolic inactivity by the promising compounds, the minimum lethal concentration (MLC) values were determined by treating the trophozoites with the test compounds for 3 days and transferring the resulting cultures to medium lacking the compounds for 3 days of proliferation. This assay was described previously for G. lamblia ([18]) and was adapted to E. histolytica in the current study.
Trophozoites of G. lamblia isolates WB and GS were grown anaerobically in borosilicate glass screw-cap culture tubes (Fisher Scientific) at pH 7.0 in Keister’s modified TYI-S-33 medium (ATCC). The medium was supplemented with 10% heat-inactivated bovine serum (Sigma-Aldrich) and 0.05% bovine bile (Sigma-Aldrich). To attain low-oxygen-tension conditions, the tubes were filled to 85% to 90% of their total volume capacity and incubated without shaking at 37°C. Subcultures (2 × 10^5 trophozoites per tube) were made three times a week. Detachment of trophozoites for inoculation was achieved by chilling the cultures on ice for 20 min. Culturing and detachment of metronidazole-resistant G. lamblia assemblage A 713M3 and assemblage B 1279-M1 trophozoites followed the same protocol, except that the growth medium was supplemented with metronidazole, with the concentration gradually being increased to 10 μM.
Compounds were prepared by 2-fold serial dilutions in growth medium containing 0.5% DMSO (diluted from a starting concentration of 1 μM to 12 concentrations for all compounds except metronidazole, fumagillol, and TNP-470, which were diluted from 100 μM), and 100 μl/well was transferred in duplicate to the 96-well culture plate. Ten microliters of G. lamblia trophozoites was plated at a density of 10,000 cells/well. The plates were incubated under anaerobic condition in a BD GasPak EZ container system (BD Diagnostics) at 37°C for 72 h and surveyed visually under a microscope to check trophozoite survival, mobility, and attachment. […] The tubes were incubated under anaerobic condition for 3 days at 37°C and checked under a microscope. The MLC value was the concentration in the tube with the lowest compound concentration without any live organism.

Consider `COC1C(OC(=O)NC(=O)CN2CCOCC2)CCC2(CO2)C1C1(C)OC1CC=C(C)C` (stereo not shown) [Compound 3], for which the “fold improved MLCs compared with the MLC of fumagillin” value was about 100 fold.
